# System: Ago2 and Dicer protein interactions
# Experiment: Targeted mass spectrometry of Ago2-Flag / Dicer-Flag interactions in HEK293 cells under stress
# Type: cell-based
# Conditions: 0.5 mM, 60 min
# Method: (FIG. 9A) The ratio of pre-miRNA to mature miRNA levels in NSC-34 cells, transfected with plasmids as indicated and in cells treated for 72 hrs with carrier alone (water, black) or with cycloheximide (CHX, 0.02 μg/ml, gray). Data normalized to control plasmid transfection. Pre-miRNAs further normalized to Gapdh (for FUS R495X, TDP-43 A315T) or to beta-actin (SOD1 G93A) and miRNA levels normalized to Snord68. Average of three independent experiments except for pre-miRNAs in the study of FUS R495X (n=2). Targeted quantitative mass spectrometry analysis of changes in the binding of Ago2 or Dicer to a set of proteins interactors under stress (FIGS. 9B-E). Immunoprecipitated Ago2-Flag (FIG. 9B) or Dicer-Flag (FIG. 9C) from HEK 293 cells, cultured under basal conditions or treated with sodium arsenite (0.5 mM, 60 min) was subjected to targeted mass-spectrometry analysis. Data is averaged from two or three different peptide standards per protein and normalized to the levels of co-immunoprecipiated peptides from untreated cells. Statistically significant result in a student t-test, between arsenite and control treatment is denoted (*p<0.05). Targeted mass spectrometry of (FIG. 9D) Dicer cofactors or (FIG. 9E) SG components, immunoprecipitated with AGO-Flag in FUS R495X-expressing HEK 293 that were further treated for 72 hrs with carrier alone or Cycloheximide (0.02 μg/ml). (FIG. 9F) The ratio of pre-miRNA to mature miRNA levels in mouse embryonic fibroblasts, pretreated for 5 hrs with HSP90 inhibitors (17-AAG, 1 μM or Geldanamycin, 1 μM) and then incubated for 36 more hours with Thapsigargin (5 nM) in combinations with the respective HSP90 inhibitor. Bars represent the average of three independent experiments. miRNA normalized to the expression levels of Snord70, and pre-miRNA normalized to Gapdh.
# For mass-spectrometry, HEK293 that either stably express Ago2-FLAG (n=3 for each group) or Dicer-Flag transfected cells (48 hrs post-transfection, n=4 for each group) were untreated or stressed with 0.5 mM sodium arsenite for 60 minutes before harvest. IP was performed with the FLAG-IPT1 Kit (Sigma-Aldrich). Negative controls were HEK293 cells not containing a FLAG-construct. Samples containing the eluted proteins and the FLAG peptide were filtered using 3 kDa molecular weight cut-off spin columns (Amicon, Millipore). Buffer was exchanged to 50 mM ammonium bicarbonate (Sigma-Aldrich) in the same step. Proteins were reduced by addition of dithiothreitol (Sigma-Aldrich) to a final concentration of 5 mM and incubation for 30 minutes at 60° C., and alkylated with 10 mM iodoacetamide (Sigma-Aldrich) in the dark for 30 minutes at 21° C. The proteins were then digested using trypsin (Promega; Madison, Wis., USA) at a ratio of 1:50 (w/w trypsin/protein) for 16 hrs at 37° C. […]
smiles,measurement,setting,value
O=[As]O [sodium arsenite],"Ago2 and/or Dicer protein interactions with SG components eiF2S1, eIF3, eIF5a and with PCBP1, PCBP2",,increased Ago2 and/or Dicer protein interactions with SG components
same,increase of Ago2 phosphorylation on serine-387,,more than 10 fold
same,interaction of HSP90 and co-chaperone p23 with Dicer,,increased interaction with Dicer under stress
same,interactions of Ago2 with Dicer,relative to basal conditions,enhanced interactions of Ago2 with Dicer

# Source: US10159670B2, “Methods of diagnosing and treating motor neuron diseases and other cellular stress-related diseases” (priority 2012, dated 2018)
